The values that follow come from US5968526A, “T cell epitopes of the major allergens from Dermatophagoides (house dust mite)” (Immulogic Pharamaceutical Corporation, priority 1995, dated 1999).

Experiment [1] deals with T cell lines primed in vitro to Der p II. Put plainly: secondary proliferation of Der p II-primed T cell lines (Examples VIII, X, XI). Format: cell-based, human. The following applies: Der p II primed; 26 positive experiments; FIG. 12. The method, then: Experiments similar to those of Example V were performed to determine the T cell-reactive areas of the Der p II protein. For example, PBMC from house dust mite-allergic patient 348 were isolated as described in Example V and were stimulated in vitro with 20 μg/ml purified native Der p II.
The above procedure was followed with a number of patients except in individual cases, T cell lines were primed with recombinant Der p II at 20 μg/ml or at 3 μg/ml and x-irradiated (3500 Rads) autologous PBMC were used as antigen-presenting cells. The data was analyzed as described in Example V, except the ranked sum of peptide responses was analyzed assigning a value of 3, 2 or 1 to the three highest S.I. responses.
A study similar to that described in Example VII was carried out to determine the T cell cross-reactivity of the Der p II and Der f II proteins. T cells primed with the Der f II protein were challenged with various Der f II peptides and a set of substantially matching Der p II peptides.
Another experiment following the procedure described in Example VIII analyzed the response of 29 patients primed in vitro to the Der p II protein and challenged with selected peptides derived from the Der p II sequence.

Experiment [2] concerns T cell lines primed in vitro to Der f II. Put plainly: secondary proliferation of Der f II-primed T cell lines (Examples IX, X, XI). To be noted: for T cell reactivity: overlapping Der f II peptides, 10 positive experiments, FIG. 10; for T cell response: patient 384, recombinant Der f II primed, data not shown. Format: cell-based, human. On the procedure:
Experiments similar to those of Example V were performed to determine the T cell-reactive areas of the Der f II protein. For example, PBMC from house dust mite-allergic patient 384 were stimulated in vitro with purified recombinant Der f II and the T cell line was then challenged in the presence of x-irradiated (25,000 Rads) autologous Epstein-Barr virus transformed B cells as antigen presenting cells with various overlapping […]. The results of this proliferation assay indicate that T cells from this particular patient respond well to peptides DF II-1, DF II-2, DF II-3.1, DF II-4.5, DF II-15, DF II-16, and DF I-19.1 (data not shown).
The above procedure was followed with 10 patients, except in individual cases, T cell lines were primed by stimulating the patient PBMC with 20 μg/ml or 3 μg/ml purified native Der f II, and were assayed in the presence of x-irradiated (3500 Rads) autologous PBMC as antigen-presentingcells.
A study similar to that described in Example VII was carried out to determine the T cell cross-reactivity of the Der p II and Der f II proteins. T cells primed with the Der f II protein were challenged with various Der f II peptides and a set of substantially matching Der p II peptides. […]

For experiment [3], the system named is PBMC from mite-allergic patient. Put plainly: primary T cell (PBMC) proliferation, mite-allergic patient, tritiated thymidine. Format: cell-based, human. To be noted: medium 1071 ± 30. On the procedure:
Peripheral blood mononuclear cells (PBMC) were purified by Ficoll-Hypaque centrifugation of a peripheral blood specimen from mite-allergic patient and were assayed for proliferation in response to various antigens, i.e., affinity-purified Der p I, affinity purified Der p II, various Der p I and Der p II peptides. For assay, 5×10^4 PBMC were cultured in triplicate microwells for 7 days at 37° C. in the presence of various concentrations of antigen in 200 μl RPMI-1640 containing 5% human AB serum. Each well then received 1 μCi tritiated thymidine for 16 hours. The counts incorporated were collected onto glass fiber filters and processed for liquid scintillation counting. […] The CPM +/- standard deviation are shown. The stimulation index of each response (S.I.) is the ratio of the ^3 H-thymidine CPM incorporated by the cells in response to antigen divided by the ^3 H-thymidine CPM incorporated by cells in medium only. […] Thus, these peptides contain Der p I or Der p II T cell epitopes recognized by T cells from this particular allergic patient.

Experiment [4] deals with T cell lines primed in vitro to Der p I. Put plainly: secondary proliferation of Der p I-primed T cell lines (Examples V, VII, XI). Format: cell-based, human. To be noted: for T cell reactivity: overlapping Der p I peptides. The essentials:
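PBMC were primed with native or recombinant Der p I (10 or 20 μg/ml) for 7 days, then expanded with IL-2 and IL-4. Resting T cells (2×10^4) were cultured 3 days with irradiated autologous EBV-B cells or PBMC and titrated protein or peptides, then pulsed 16 h with 1 μCi ³H-thymidine. S.I. was peak-response CPM over medium-only CPM, with S.I. ≥2.0 scored positive.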

Experiment [5] deals with T cell lines primed in vitro with Der p I. Put plainly: T cell proliferation with fine map and modified Group I peptides (Example XIV). Format: cell-based, human. To be noted: for T cell response, Group I peptides: FIGS. 31a-b. On the procedure: Long term T cell lines were established by stimulation of 2×10^6 PBL/ml in bulk cultures of complete medium (RPMI-1640, 2 mM L-glutamine, 100 U/ml penicillin/streptomycin, 5×10^-5 M 2-mercaptoethanol, and 10 mM HEPES supplemented with 5% heat inactivated human AB serum) with 30 μg/ml of purified native Der p I or Der p II for 5-6 days at 37° C. in a humidified 5% CO2 incubator to select for house dust mite protein allergen reactive T cells. This amount of priming antigen was determined to be optimal for the activation of T cells from house dust mite allergic patients. Viable cells were purified by LSM centrifugation and cultured in complete medium supplemented with 5 units recombinant human IL-2/ml and 5 units recombinant human IL-4/ml for up to three weeks until the cells no longer responded to lymphokines and were considered "rested". The ability of the T cells to proliferate to selected peptides, purified Der p I or Der p II, or positive (PHA) controls or negative controls (medium only) was then assessed. For assay, 2×10^4 rested cells were restimulated in the presence of 2×10^4 autologous Epstein-Barr virus (EBV)-transformed B cells (prepared as described below) (gamma-irradiated with 25,000 RADS) or with 5×10^4 autologous PBMs (gamma-irradiated with 3500 RADS), with 2-50 μg/ml of purified native Der p I or Der p II in a volume of 200 μl complete medium in duplicate or triplicate wells in 96-well round bottom plates for 3 days. Each well then received 1 μCi tritiated thymidine for 16-20 hours. The counts incorporated were collected onto glass fiber filter mats and processed for liquid scintillation counting. […] The titrations were used to optimize the dose of peptides in T cell assays.
The maximum response in a titration of each peptide is expressed as the stimulation index (S.I.). The S.I. is the counts per minute (CPM) incorporated by cells in response to peptide, divided by the CPM incorporated by cells in medium only. […] The positive results were used in calculating mean stimulation indices for each peptide for the individual patient tested.
The above procedure was followed with 18 patients in the studies using peptides derived from Der p I and Der f I (FIGS. 31a-b), and 21 patients in the studies with Der p II peptides (FIGS. 32a-b). Individual patient results were used in calculating the mean S.I. for each peptide if the patient responded to the Der p I or Der p II protein at an S.I. of 2.0 or greater and the patient responded to at least one peptide derived from a house dust mite allergen at an S.I. f 2.0 or greater. A summary of positive experiments from the patients tested is shown in FIGS. 32a and 32b and FIGS. 33a and 33b. The bars represent the positivity index. […] In parenthesis above each bar are the mean stimulation indices for each peptide or protein for the group of patients tested.
Autologous EBV-transformed cell lines were γ-irradiated with 25,000 Rad and used as antigen presenting cells in secondary proliferation assays and secondary bulk stimulations. These EBV-transformed cell lines were made by incubating 5×10^6 PBL with 1 ml of B-59/8 Marmoset cell line (ATCC CRL1612, American Type Culture Collection, Rockville, Md.) conditioned medium in the presence of 1 μg/ml phorbol 12-myristate 13-acetate (PMA) at 37° C. for 60 minutes in 12×75 mm polypropylene round-bottom Falcon snap cap tubes (Becton Dickinson Labware, Lincoln Park, N.J.). These cells were then diluted to 1.25×10^6 cells/ml in RPMI-1640 as described above except supplemented with 10% heat-inactivated fetal bovine serum and cultured in 200 μl aliquots in flat bottom culture plates until visible colonies were detected. They were then transferred to larger wells until the cell lines were established.

Experiment [6] deals with T cell lines primed in vitro to Der f I. Kind of experiment: secondary proliferation of Der f I-primed T cell lines (Examples VI, VII, XI). Format: cell-based, human. To be noted: Der f I primed; 8 positive experiments; FIG. 8. On the procedure: Experiments similar to those of Example V were performed to determine. the T cell-reactive areas of the Der f I protein. For example, PBMC from house dust mite-allergic patient 783 were isolated as described in Example V and were stimulated in vitro-- with recombinant purified Der f I at 20 μg/ml. The results of the proliferation assay with Der f I peptides using x-irradiated (3500 Rads) autologous PBMC as antigen presenting cells indicate that T cells from this patient respond to the peptides DF I-8.1, DF I-9, DF I-6, DF I-10, DF I-2.1, DF I-3, DF I-11, DF I-5, DF I-1, and DF I-17 (data not shown).
The above procedure was followed in a number of patients except in individual cases, T cell lines were primed with affinity purified Der f I at 20 μg/ml or at 10 μg/ml and x-irradiated (25,000 Rads) autologous Epstein-Barr virus transformed B cells were used as antigen presenting cells. […]
Similarly, the procedure described in Example VI was followed with T cell lines from 9 patients primed in vitro to the Der f I protein then analyzed for response to selected peptides derived from the protein. The data was analyzed as described in Example VI. […]

The next experiment deals with human IgE. Put plainly: direct binding ELISA of IgE to mite allergen proteins and peptides. The following applies: plasma of 19 mite-allergic patients and pool of 18; Example XV. On the procedure: The coating antigens were removed and the wells are blocked with 0.5% gelatin in PBS, 300 μl/well for 2 hours at room temperature. Pooled human plasma (a mix of plasma samples from 20 patients that were skin test positive for commerical mite extract) was serially diluted with PBS-Tween 20 (PBS with 0.05% nonionic detergent Tween-20 Sigma, St. Louis, Mo.) and 100 μl/well a.backslash.was added and incubated overnight at 4° C. (plasma dilutions were tested in duplicate). The second antibody (biotinylated goat anti-Human IgE, 1:1000, Kirkegaard & Perry Laboratories Inc, Gaithersburg, Md.), was added at 100 μl/well for one hour at room temperature. This solution was removed and streptavidin-HRPO, 1:10000, (Southern Biotechnology Associates, Inc., Birmingham, Ala.) was then added at 100 μl/well for one hour at room temperature (all wells are washed three times with PBS-Tween between each incubation step). TMB Membrane Peroxidase Substrate system (Kirkegaard & Perry Laboratories) was freshly miced, and added at […]. The color was allowed to develop for 2-5 minutes. The reaction was stopped by the addition of […] of 1M phosphoric acid. Plates were read on a Microplate IL310 Autoreader (Biotech Instruments, Winooski, Vt.) with a 450 nm filter. The absorbance levels of duplicate wells were averaged. The order of coating antigens listed vertically in these figure legends corresponds in orDer from left to right to the coating antigens listed for each histogram.
The antigen preparation that was used as a positive control was a mixture of the four major biochemically purified mite allergens (term PMA for Purified Mite Allergen); Der f I, Der f II, Der p I and Der p II. The stock was generated at a concentration of 100 μgs of each protein per millimeter or 400 μgs total protein/ml. This preparation was used on each coated ELISA plate.

Consider “DF II-1: Der f II peptide (DQVDVKDCANNEIKKVMVDG)”, for which, in experiment [1], the “T cell response to Der f II peptides” value is reported as “respond significantly”. In experiment [2], the T cell reactivity entry is given as “significant areas of T cell reactivity” and the T cell response result is recorded as “respond well”.

In the case of “DF II-3.1: Der f II peptide (HRGKPFTLEALFDANQNTK)”, the T cell response result in experiment [2] is on record as “respond well”.

On to “DF II-13.1: Der f II peptide (HGSDPCIIHRGKPFTLEALFDANQNTKTA)”, for which, in experiment [2], the T cell reactivity result is reported as “significant areas of T cell reactivity”.

For “DF II-16: Der f II peptide (LEIDVPGIDTNACHFMKCPLVKGQQY)”, the T cell response entry in experiment [2] is given as “respond well”.

Consider “DP I-2: Der p I peptide (EIDLRQMRTVTPIRMQGGCGSCWAFSG)”, for which the “CPM ± S.D.” value is recorded as 1395 ± 47 CPM in experiment [3] (10 μg/ml), 1283 ± 34 CPM in experiment [3] (30 μg/ml) and 1486 ± 38 CPM in experiment [3] (100 μg/ml). In addition, the T cell reactivity entry in experiment [4] (33 positive experiments) is listed as “significant regions of T cell reactivity”. Also, in experiment [5], the “T cell response, Group I peptides” value was “positive response”.

On to “DP I-4: Der p I peptide (VAATESAYLAHRNQSLDLAEQ)”, for which, in experiment [4] (33 positive experiments), the T cell reactivity result was “significant regions of T cell reactivity”. For the same substance, in experiment [6], the “T cell response to Der p I peptides” value is given as “respond significantly”. Further, in experiment [5], the “T cell response, Group I peptides” value is “positive response”.

In the case of “DP I-23.35: modified Der p I peptide (DEKEGVVQESYYRYVAREQSCRRPNADKE)”, the “positive T cell responses, modified peptides” value in experiment [5] (18 T cell lines, affinity purified Der p I primed, FIG. 31a) was “all eighteen T cell lines responded positively”. In addition, the “T cell response, Group I peptides” value in experiment [5] is given as “positive T cell studies”. In addition, the “IgE binding (ELISA), modified peptides” value with human IgE is given as “No plasma samples contained IgE”.

On to “DP I-26.1: Der p I peptide (IIGIKDLDAFRHYDGRTIIQRDNGYQ)”, for which the “T cell response to selected Der p I peptides” value in experiment [4] (33 positive experiments, FIG. 13) was “respond significantly”. For the same substance, the “positivity index (P.I.)” value in experiment [4] (mean S.I. × percent responders, 33 patients) is given as “at least 150”. Also, in experiment [5], the “T cell response, Group I peptides” value is “positive T cell studies”.

Take “DP II-25.2: Der p II peptide (TVKVLGDDGVLASAIATHAKIRD)”: the “ranked sum of peptide responses” value in experiment [2] (FIG. 18b, preferred Der p II peptides) is “highest ranked sum”.
